Measured values: patent US8685970B2, “Quinolines and related analogs as sirtuin modulators” (GlaxoSmithKline, LLC, priority 2008, dated 2014)

Molecular target: T1, SIRT1 (Homo sapiens, UniProt Q96EB6)
T1 sequence (Q96EB6 1-747): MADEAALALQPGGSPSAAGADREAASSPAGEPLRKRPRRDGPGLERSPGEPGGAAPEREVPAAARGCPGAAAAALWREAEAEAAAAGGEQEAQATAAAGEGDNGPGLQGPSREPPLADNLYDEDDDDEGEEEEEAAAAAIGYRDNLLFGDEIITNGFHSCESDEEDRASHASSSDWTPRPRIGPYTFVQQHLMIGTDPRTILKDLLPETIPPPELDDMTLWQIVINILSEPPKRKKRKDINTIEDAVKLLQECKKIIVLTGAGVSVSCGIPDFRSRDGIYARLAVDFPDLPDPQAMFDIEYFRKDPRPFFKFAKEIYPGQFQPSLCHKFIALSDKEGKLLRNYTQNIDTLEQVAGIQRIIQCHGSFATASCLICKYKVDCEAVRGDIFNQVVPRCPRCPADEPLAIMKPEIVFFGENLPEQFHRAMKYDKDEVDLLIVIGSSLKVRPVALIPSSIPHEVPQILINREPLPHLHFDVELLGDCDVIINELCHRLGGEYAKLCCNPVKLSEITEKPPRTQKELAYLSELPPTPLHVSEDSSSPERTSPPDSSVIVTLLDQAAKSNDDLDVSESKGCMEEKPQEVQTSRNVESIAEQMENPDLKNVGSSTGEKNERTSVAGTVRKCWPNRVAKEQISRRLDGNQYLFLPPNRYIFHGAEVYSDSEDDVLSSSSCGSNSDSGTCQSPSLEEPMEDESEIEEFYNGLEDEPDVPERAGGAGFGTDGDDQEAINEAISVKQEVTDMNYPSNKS
Assay: Mass spectrometry based SIRT1 deacetylation assay (activation)
Format: biochemical
Settings: 10 nM SIRT1, 0.5 μM peptide substrate, 120 μM βNAD+, 25 min at 25° C.
Method in brief: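 Activation reported as EC1.5, the compound concentration producing 150% of DMSO-control deacetylation, plus maximum fold activation. Readout is mass-spectrometric ratio of deacetylated to acetylated p53-based peptide (0.5 μM) after 25 min, 25 °C, with 120 μM βNAD+ and 10 nM His-tagged human SIRT1, pH 8.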

SMILES | % Fold Act. (percent maximum fold activation) | EC1.5 (concentration of test compound that results in 150% activation of SIRT1)
Cc1cnc(NC(=O)c2cccc3ccc(-c4cccc(OC5CCNCC5)c4)nc23)s1 [Compound 134] | A (Fold activation >200%) | A (EC1.5<1.0 uM)
O=C(Nc1ccncn1)c1cccc2ncc(-c3cccc(OC(F)(F)F)c3)nc12 [Compound 128] |  | C (EC1.5>25 uM)
O=C(Nc1nccs1)c1cccc2ccc(-c3cccc(C(F)(F)F)c3)nc12 [Compound 13] | A (Fold activation >200%) | A (EC1.5<1.0 uM)
Cc1ccnc(NC(=O)c2cccc3ccc(-c4cccc(C(F)(F)F)c4)nc23)n1 [Compound 49] | A (Fold activation >200%) | A (EC1.5<1.0 uM)
Cc1cc(-c2ccc3cccc(C(=O)Nc4cccnc4)c3n2)no1 [Compound 68] |  | C (EC1.5>25 uM)
O=C(Nc1ccccc1)c1cccc2ccc(-c3cccc(C(F)(F)F)c3)nc12 [Compound 10] | A (Fold activation >200%) | B (EC1.5 1-25 uM)
O=C(Nc1ccccc1)c1cccc2ccc(-c3ccccc3)nc12 [Compound 9] | B (Fold Activation <200%) | C (EC1.5>25 uM)
O=C(Nc1cccc2ccc(-c3cc(F)cc(F)c3)nc12)c1cscn1 [Compound 78] |  | C (EC1.5>25 uM)
O=C(Nc1cccc2ccc(-c3ccc(F)c(C(F)(F)F)c3)nc12)c1cscn1 [Compound 158] |  | C (EC1.5>25 uM)
Cc1cc(-c2ccc3cccc(C(=O)Nc4ccccn4)c3n2)no1 [Compound 64] |  | C (EC1.5>25 uM)
O=C(Nc1ccccn1)Nc1cccc2ccc(-c3cccc(OC(F)(F)F)c3)nc12 [Compound 46] | B (Fold Activation <200%) | A (EC1.5<1.0 uM)
O=C(Nc1nccs1)c1cc(F)cc2ccc(-c3cccc(C(F)(F)F)c3)nc12 [Compound 62] |  | C (EC1.5>25 uM)
Cc1cc(-c2ccc3cccc(C(=O)Nc4nccs4)c3n2)no1 [Compound 69] |  | C (EC1.5>25 uM)
O=C(Nc1cccc2ccc(-c3cc(F)cc(C(F)(F)F)c3)nc12)c1ccncc1 [Compound 160] |  | C (EC1.5>25 uM)
O=C(Nc1cccc(OCC(O)CO)c1)c1cccc2ccc(-c3cccc(C(F)(F)F)c3)nc12 (centres unmarked) [Compound 151] | A (Fold activation >200%) | A (EC1.5<1.0 uM)
CCOC(=O)c1csc(NC(=O)c2cccc3ccc(-c4cccc(C(F)(F)F)c4)nc23)n1 [Compound 91] | A (Fold activation >200%) | A (EC1.5<1.0 uM)
O=C(Nc1ccccn1)c1cccc2ccc(-c3cccc(N4CCOCC4)c3)nc12 [Compound 109] | A (Fold activation >200%) | A (EC1.5<1.0 uM)
CN(C)Cc1cccc(-c2ccc3cccc(NC(=O)c4cscn4)c3n2)c1 [Compound 122] | A (Fold activation >200%) | A (EC1.5<1.0 uM)
O=C(NCc1ccncc1)c1cccc2ccc(-c3cccc(C(F)(F)F)c3)nc12 [Compound 37] | B (Fold Activation <200%) | B (EC1.5 1-25 uM)

Second part, the compound after the results:

% Fold Act. (percent maximum fold activation) | EC1.5 (concentration of test compound that results in 150% activation of SIRT1) | SMILES
A (Fold activation >200%) | A (EC1.5<1.0 uM) | O=C(Nc1cccc(OC[C@@H](O)CO)c1)c1cccc2ccc(-c3cccc(C(F)(F)F)c3)nc12 [Compound 207]
A (Fold activation >200%) | A (EC1.5<1.0 uM) | O=C(Nc1ncc(CN2CCCC2)s1)c1cccc2ccc(-c3cccc(C(F)(F)F)c3)nc12 [Compound 219]
 | C (EC1.5>25 uM) | O=C(Nc1ccccn1)c1cccc2cnc(-c3cccnc3)nc12 [Compound 298]
 | C (EC1.5>25 uM) | O=C(Nc1cccnc1)c1cccc2cnc(-c3cccnc3)nc12 [Compound 297]
 | C (EC1.5>25 uM) | O=C(Nc1ncnc2ccc(-c3cccc(C(F)(F)F)c3)nc12)c1cccc(C(F)(F)F)c1 [Compound 258]
B (Fold Activation <200%) | B (EC1.5 1-25 uM) | O=C(Nc1nc2ccccc2s1)c1cccc2ccc(-c3cccnc3)nc12 [Compound 233]
 | C (EC1.5>25 uM) | O=C(Nc1ccc(Cl)cn1)c1cccc2ccc(-c3cccnc3)nc12 [Compound 266]
B (Fold Activation <200%) | A (EC1.5<1.0 uM) | O=C(Nc1nccs1)c1cccc2ccc(-c3ccnc(N4CCOCC4)c3)nc12 [Compound 209]
A (Fold activation >200%) | A (EC1.5<1.0 uM) | O=C(Nc1ncc(CN2CCOCC2)s1)c1cccc2ccc(-c3cccc(C(F)(F)F)c3)nc12 [Compound 188]
 | C (EC1.5>25 uM) | O=C(Nc1cccnc1)c1cccc2ccc(-c3cccnc3)nc12 [Compound 183]
A (Fold activation >200%) | A (EC1.5<1.0 uM) | Cc1nnc(NC(=O)c2cccc3ccc(-c4cccc(N5CCOCC5)c4)nc23)o1 [Compound 276]
A (Fold activation >200%) | A (EC1.5<1.0 uM) | Cn1ccnc1C(=O)Nc1cccc2ccc(-c3cccc(C(F)(F)F)c3)nc12 [Compound 222]
A (Fold activation >200%) | A (EC1.5<1.0 uM) | O=C(Nc1ccnc(N2CCOCC2)c1)c1cccc2ccc(-c3cccc(C(F)(F)F)c3)nc12 [Compound 321]
 | C (EC1.5>25 uM) | O=C(Nc1nccs1)c1cccc2cnc(-c3cccnc3)nc12 [Compound 280]
A (Fold activation >200%) | A (EC1.5<1.0 uM) | O=C(Nc1cccnn1)c1cccc2ccc(-c3cccnc3)nc12 [Compound 263]
B (Fold Activation <200%) | A (EC1.5<1.0 uM) | O=C(Nc1nccs1)c1cccc2ccc(-c3cccnc3)nc12 [Compound 180]
A (Fold activation >200%) | B (EC1.5 1-25 uM) | O=C(Nc1ncnc2ccc(-c3cccc(OC(F)(F)F)c3)nc12)c1cccnc1 [Compound 210]
A (Fold activation >200%) | A (EC1.5<1.0 uM) | O=C(Nc1cnccn1)c1cccc2ccc(-c3cccc(N4CCOCC4)c3)nc12 [Compound 279]
 | C (EC1.5>25 uM) | O=C(Nc1nccs1)c1cccc2cnc(-c3cccc(C(F)(F)F)c3)nc12 [Compound 270]
A (Fold activation >200%) | A (EC1.5<1.0 uM) | O=C(Nc1ncnc2ccc(-c3cccc(C(F)(F)F)c3)nc12)c1cscn1 [Compound 259]
A (Fold activation >200%) | A (EC1.5<1.0 uM) | O=C(Nc1ncnc2ccc(-c3cccc(OC(F)(F)F)c3)nc12)c1ccccn1 [Compound 194]
A (Fold activation >200%) | A (EC1.5<1.0 uM) | O=C(Nc1cccc(CN2CCOCC2)c1)c1cccc2ccc(-c3cccc(C(F)(F)F)c3)nc12 [Compound 255]
A (Fold activation >200%) | A (EC1.5<1.0 uM) | O=C(Nc1cccc2ccc(-c3cccc(C(F)(F)F)c3)nc12)c1cncs1 [Compound 220]
A (Fold activation >200%) | B (EC1.5 1-25 uM) | CS(=O)(=O)c1cncc(-c2ccc3cccc(NC(=O)c4cscn4)c3n2)c1 [Compound 229]
